This experiment deals with 7-week-old shaved C57BL/6J mouse model. Put plainly: Hair loss therapy (hair regrowth) in shaved mouse model. In kind it is in vivo. As for the experimental part:
Animal Studies: C57B/6J mice were used in this work and purchased from Jackson Laboratory (Bar Harbor, Me., United States of America). For in vivo therapy studies, the mice were shaved at postnatal day 50, and treated with an HMN patch loaded with exosomes and/or UK5099 at day 1 and day 5 after hair shave. The patch was pressed firmly for the first 5 seconds to penetrate through the epidermis and then pressed softly for an additional 1 minute to make the patch absorb liquid. The patch base was removed at 4 hours post-insertion into the skin. Topical administration of UK5099 (solvent formulation: ethanol/water/propylene glycol=5/3/2), and subcutaneous injection of exosomes were performed every two days, with the dosage same with that of the corresponding HMN patch. Shaved mice without any treatment were adopted as a control. The clinical agent minoxidil was used via topical administration in a concentration of 3%. The time profile of the hair phenotype transformation was obtained by real-time observation of the hair regrowth in mice. The judgement of the hair follicles in telogen, telogen-anagen transition, and anagen was performed according to a method previously described in the literature. See Oh et al., J. Investig. Dermatol. 2016, 136(1), 34-44. […]

On to `N#CC(=Cc1cn(-c2ccccc2)c2ccccc12)C(=O)O` [UK5099, 2-cyano-3-(1-phenyl-1H-indol-3-yl)-2-propenoic acid], for which the “time for HFSCs to enter into anagen (pigmentation and hair regrowth)” value (delivered via HMN patch, two rounds of administration (day 1 and day 5)) is on record as “about 8 days”. In addition, for the setting “topical administration, seven treatments, compared with HMN administration”, the “therapeutic effect reflected by the hair covered area” value was “inferior therapeutic effect”.
